Source: PubChem BioAssay (NCI)
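How tested: cells in 96-well plates exposed to compound for 48 hours at five concentrations. TGI is the concentration that stops growth completely.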

Tests used:
Experiment in all cases: NCI tumour cell line growth inhibition, 48 h
OVCAR-3 ovarian = tested on: OVCAR-3 ovarian
UACC-62 melanoma = tested on: UACC-62 melanoma
MDA-N = tested on: MDA-N
HOP-92 NSCLC = tested on: HOP-92 NSCLC
NCI/ADR-RES ovarian = tested on: NCI/ADR-RES ovarian
NCI-H460 lung = tested on: NCI-H460 lung
SK-OV-3 ovarian = tested on: SK-OV-3 ovarian
COLO 205 colon = tested on: COLO 205 colon
HT29 colon = tested on: HT29 colon
LOX IMVI melanoma = tested on: LOX IMVI melanoma
SK-MEL-5 melanoma = tested on: SK-MEL-5 melanoma
SF-539 CNS = tested on: SF-539 CNS
786-0 renal = tested on: 786-0 renal
KM12 colon = tested on: KM12 colon
SF-268 CNS = tested on: SF-268 CNS
HOP-62 NSCLC = tested on: HOP-62 NSCLC
SNB-19 CNS = tested on: SNB-19 CNS
A549 NSCLC = tested on: A549 NSCLC
SNB-75 CNS = tested on: SNB-75 CNS
EKVX NSCLC = tested on: EKVX NSCLC
CAKI-1 renal = tested on: CAKI-1 renal
OVCAR-8 ovarian = tested on: OVCAR-8 ovarian
SN12C renal = tested on: SN12C renal
RXF 393 renal = tested on: RXF 393 renal
MCF7 breast = tested on: MCF7 breast
PC-3 prostate = tested on: PC-3 prostate
U251 CNS = tested on: U251 CNS
SW-620 colon = tested on: SW-620 colon
BT-549 breast = tested on: BT-549 breast
OVCAR-5 ovarian = tested on: OVCAR-5 ovarian
NCI-H226 lung = tested on: NCI-H226 lung
NCI-H522 lung = tested on: NCI-H522 lung
MDA-MB-231 breast = tested on: MDA-MB-231 breast
DU-145 prostate = tested on: DU-145 prostate
ACHN renal = tested on: ACHN renal
TK-10 renal = tested on: TK-10 renal
IGROV1 ovarian = tested on: IGROV1 ovarian
M14 melanoma = tested on: M14 melanoma
A498 renal = tested on: A498 renal
HL-60(TB) leukemia = tested on: HL-60(TB) leukemia
T-47D breast = tested on: T-47D breast
K-562 leukemia = tested on: K-562 leukemia
UO-31 renal = tested on: UO-31 renal
SF-295 CNS = tested on: SF-295 CNS
MOLT-4 leukemia = tested on: MOLT-4 leukemia
HCT-116 colon = tested on: HCT-116 colon
UACC-257 melanoma = tested on: UACC-257 melanoma
RPMI-8226 leukemia = tested on: RPMI-8226 leukemia
OVCAR-4 ovarian = tested on: OVCAR-4 ovarian
NCI-H23 lung = tested on: NCI-H23 lung
SK-MEL-2 melanoma = tested on: SK-MEL-2 melanoma
HCT-15 colon = tested on: HCT-15 colon
SK-MEL-28 melanoma = tested on: SK-MEL-28 melanoma

Work on `NN/C(=N\S(=O)(=O)c1ccc(-c2ccccn2)s1)Nc1ccc(Cl)cc1` yielded a TGI (OVCAR-3 ovarian) greater than 100 µM, a TGI (UACC-62 melanoma) greater than 100 µM and a TGI (MDA-N) greater than 100 µM. The TGI (HOP-92 NSCLC) was greater than 100 µM, the TGI (NCI/ADR-RES ovarian) was greater than 100 µM and the TGI (NCI-H460 lung) was greater than 100 µM. It also gave a TGI (SK-OV-3 ovarian) greater than 100 µM, a TGI (COLO 205 colon) greater than 100 µM and a TGI (HT29 colon) greater than 100 µM. It also gave a TGI (LOX IMVI melanoma) greater than 100 µM, a TGI (SK-MEL-5 melanoma) greater than 100 µM and a TGI (SF-539 CNS) greater than 100 µM. The TGI (786-0 renal) was greater than 100 µM, the TGI (KM12 colon) was greater than 100 µM and the TGI (SF-268 CNS) was 84.2 µM. For the same molecule, the TGI (HOP-62 NSCLC) was greater than 100 µM, the TGI (SNB-19 CNS) was greater than 100 µM and the TGI (A549 NSCLC) was greater than 100 µM. It also gave a TGI (SNB-75 CNS) of 69.2 µM, a TGI (EKVX NSCLC) greater than 100 µM and a TGI (CAKI-1 renal) greater than 100 µM. The TGI (OVCAR-8 ovarian) was greater than 100 µM, the TGI (SN12C renal) was greater than 100 µM and the TGI (RXF 393 renal) was 94 µM. For the same molecule, the TGI (MCF7 breast) was greater than 100 µM, the TGI (PC-3 prostate) was greater than 100 µM and the TGI (U251 CNS) was greater than 100 µM. It also gave a TGI (SW-620 colon) greater than 100 µM, a TGI (BT-549 breast) greater than 100 µM and a TGI (OVCAR-5 ovarian) greater than 100 µM. The TGI (NCI-H226 lung) was greater than 100 µM, the TGI (NCI-H522 lung) was 57.1 µM and the TGI (MDA-MB-231 breast) was greater than 100 µM. The TGI (DU-145 prostate) was greater than 100 µM, the TGI (ACHN renal) was greater than 100 µM and the TGI (TK-10 renal) was greater than 100 µM. For the same molecule, the TGI (IGROV1 ovarian) was greater than 100 µM, the TGI (M14 melanoma) was greater than 100 µM and the TGI (A498 renal) was greater than 100 µM. It also gave a TGI (HL-60(TB) leukemia) greater than 100 µM, a TGI (T-47D breast) greater than 100 µM and a TGI (K-562 leukemia) greater than 100 µM. For the same molecule, the TGI (UO-31 renal) was greater than 100 µM, the TGI (SF-295 CNS) was greater than 100 µM and the TGI (MOLT-4 leukemia) was greater than 100 µM. The TGI (HCT-116 colon) was greater than 100 µM, the TGI (UACC-257 melanoma) was greater than 100 µM and the TGI (RPMI-8226 leukemia) was greater than 100 µM. It also gave a TGI (OVCAR-4 ovarian) greater than 100 µM, a TGI (NCI-H23 lung) greater than 100 µM and a TGI (SK-MEL-2 melanoma) greater than 100 µM. For the same molecule, the TGI (HCT-15 colon) was greater than 100 µM and the TGI (SK-MEL-28 melanoma) was greater than 100 µM.
